In patent publication EP1322622B1, “NEW N, N'-DISUBSTITUTED BENZIMIDAZOLONE DERIVATIVES WITH AFFINITY AT THE SEROTONIN AND DOPAMINE RECEPTORS” (Sprout Pharmaceuticals, Inc., priority 2000, dated 2002):

Columns and labels:
5-HT1A human receptors = molecular target: T1, 5-HT1A human receptors (Homo sapiens, UniProt P08908); assay: 5-HT1A Radioligand Receptor Binding Assay ([3H]-8-OH-DPAT, CHO cell membranes); conditions: compound at 10^-7 M, singlicate; [3H]-8-OH-DPAT 0.6-0.7 nM; read-out: 5-HT1A receptor binding assay % inhib. (10^-7 M)
T1 construct: expressed in transfected cells; host or cells: CHO cells
T1 sequence (P08908 1-422): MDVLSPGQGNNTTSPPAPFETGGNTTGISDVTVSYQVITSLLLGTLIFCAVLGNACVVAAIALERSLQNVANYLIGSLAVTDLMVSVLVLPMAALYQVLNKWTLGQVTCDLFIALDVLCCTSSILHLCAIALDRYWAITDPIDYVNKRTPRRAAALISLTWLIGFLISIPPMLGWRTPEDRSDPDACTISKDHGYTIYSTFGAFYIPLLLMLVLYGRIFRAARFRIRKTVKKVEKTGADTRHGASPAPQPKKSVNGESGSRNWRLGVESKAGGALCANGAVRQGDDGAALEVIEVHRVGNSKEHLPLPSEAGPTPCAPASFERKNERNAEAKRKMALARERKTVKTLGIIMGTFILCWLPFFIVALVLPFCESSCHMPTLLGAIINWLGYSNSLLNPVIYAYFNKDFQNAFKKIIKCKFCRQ
Procedure: Membranes from CHO cells, expressing 5-HT1A human receptors were suspended in incubation buffer.
The compounds were tested in singlicate at one concentration (10^-7 M) in a total volume of 1000 µl. 980 µl of diluted membranes, 10 µl DMSO or unlabelled ligand and 10 µl of [^3H]-8-OH-DPAT (0.6-0.7 nM) were incubated for 60 min at 27 °C. The reaction was stopped by rapid filtration through Tomtec cell Harvester (48 wells) using Filtermat B (presoaked in 0.1% PEI) filters. […] Non specific binding was determined in the presence of 5-HT (10^-5 M).
(§1) The specific radioligand binding to the receptor was defined by the difference between total binding and non specific binding, determined in the presence of an excess of unlabelled ligand. Results were expressed as percentage of control specific binding obtained in the presence of the compounds.
The affinity values (IC50) for the compounds were obtained by a non linear least squares regression analysis on the basis of a one binding site model.

D4 human receptors = molecular target: T2, D4 human receptors (Homo sapiens, UniProt P21917); assay: D4 Radioligand Receptor Binding Assay ([3H] YM-09151-2, CHO cell membranes); conditions: compound at 10^-7 M, singlicate; [3H] YM-09151-2 0.15-0.25 nM; read-out: D4 receptor binding assay % inhib. (10^-7 M)
T2 construct: expressed in transfected cells; host or cells: CHO cells
T2 sequence (P21917 1-419): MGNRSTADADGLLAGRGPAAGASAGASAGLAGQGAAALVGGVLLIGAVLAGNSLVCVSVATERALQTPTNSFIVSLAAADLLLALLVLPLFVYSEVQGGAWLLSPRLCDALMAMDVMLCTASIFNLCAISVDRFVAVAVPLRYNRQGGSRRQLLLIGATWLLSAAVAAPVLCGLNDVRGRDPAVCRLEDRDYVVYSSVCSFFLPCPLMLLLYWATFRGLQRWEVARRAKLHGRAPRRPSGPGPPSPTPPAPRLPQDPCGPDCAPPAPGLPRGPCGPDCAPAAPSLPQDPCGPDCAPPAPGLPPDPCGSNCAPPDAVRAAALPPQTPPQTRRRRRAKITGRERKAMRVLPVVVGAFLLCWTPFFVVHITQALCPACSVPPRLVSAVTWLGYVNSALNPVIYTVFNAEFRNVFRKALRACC
Procedure: Membranes from CHO cells, expressing D4 human receptors were suspended in incubation buffer.
Binding assays were performed in MultiProbe 204 pipetting system (Packard), according to a predetermined mapping, consistent with the software Screen. The compounds were tested in singlicate at one concentration (10^-7 M) in a total volume of 1000 µl (980 µl of diluted membranes, 10 µl DMSO or unlabelled ligand and 10 µl of [^3H] YM-09151-2 (0.15-0.25 nM). After incubation for 120 min at 27 °C, the reaction was stopped by rapid filtration through Tomtec cell Harvester (48 wells) using Filtermat B (presoaked in 0.1% PEI) filters. Filters were washed with ice-cold 50 mM Tris-HCl (pH 7.4) buffer (9 x 700 µl), dryed, covered with MeltiLex B/HS (Wallac) scintillator sheets and heated in oven at 80-90 °C for about 10 min, transferred into plastic sample bags (Wallac), sealed and put into 1024 Beta Plate scintillation counter (Wallac). Non specific binding was determined in the presence of clozapine dissolved in DMSO to a final concentration of 10^-5 M.
as §1

CHO/5-HT1A cells = molecular target: T3, CHO/5-HT1A cells (Homo sapiens, UniProt P08908); assay: 5-HT1A Functional assay (cAMP); type: cell-based; conditions: 10 µM compound; % inhibition of the cAMP accumulation induced by 10 µM FSK; read-out: 5-HT1A cAMP % inhib.
T3 construct: expressed in transfected cells; host or cells: CHO/5-HT1A cells
T3 sequence (P08908 1-422): T1 sequence (P08908 1-422)
Procedure: CHO/5-HT1A cells were random seeded at a density of about 200,000/well in 24 well plates the day prior to the experiment. On the day of the experiment, cells were pretreated for 15 min at 37 °C with 500 µM isobuthylmethylxantine (IBMX) dissolved in culture medium without serum. Wells were then divided in different groups in duplicate as follows: control, 10 µM FSK, 10 µM FSK + 1 µM 5-HT as positive standard and 10 µM FSK + 10 µM of the different compound under evaluation. Sample solutions were added and incubated for additional 15 min at 37 °C. After incubation, medium was aspirated and the reaction stopped by adding 200 µl of lysis buffer. Plates were shaken for 5 min, then the lysate was removed and samples were stored at 4 °C until the day of the assay. For the cAMP evaluation, samples were properly diluted and the cAMP content was measured by an enzymeimmunoassay system.

| Compound | inhibition at 0.1 µM (5-HT1A human receptors) | inhibition at 0.1 µM (D4 human receptors) | inhibition at 10 µM (CHO/5-HT1A cells) |
| --- | --- | --- | --- |
| CC(=O)NCCn1c(=O)n(C/C=C\CN2CCN(c3cccc(C(F)(F)F)c3)CC2)c2ccccc21 [compound 459] |  |  | 86% |
| CS(=O)(=O)NCCn1c(=O)n(C/C=C/CN2CCN(c3ccc(Cl)c(Cl)c3)CC2)c2ccccc21 [compound 527] | 73% | 36% |  |
| Cc1cccc(N2CCN(C/C=C\Cn3c(=O)n(CCNS(C)(=O)=O)c4ccccc43)CC2)c1C [compound 512] |  |  | 68% |
| CCNC(=O)OCCn1c(=O)n(C/C=C/CN2CCN(c3ccccn3)CC2)c2ccccc21 [compound 415] |  |  | 82% |
| COCCn1c(=O)n(C/C=C/CN2CCN(c3ccccn3)CC2)c2ccccc21 [compound 296] |  |  | 82% |
| COc1ccccc1N1CCN(C/C=C/Cn2c(=O)n(CCNS(C)(=O)=O)c3ccccc32)CC1 [compound 535] | 97% | 39% |  |
| COCCn1c(=O)n(C/C=C/CN2CCN(c3ccc(Cl)c(Cl)c3)CC2)c2ccccc21 [compound 303] | 71% | 70% |  |
| CS(=O)(=O)NCCn1c(=O)n(CCN2CCN(c3cccc(Cl)c3)CC2)c2ccccc21 [compound 241] | 69% | 32% |  |
| O=c1n(C/C=C\CN2CCN(C(c3ccccc3)c3ccc(Cl)cc3)CC2)c2ccccc2n1CCN1CCCCC1 (centres unmarked) [compound 311] | 59% | 60% |  |
| O=c1n(C/C=C/CN2CCN(c3cccc(Cl)c3)CC2)c2ccccc2n1CCN1CCOCC1 [compound 348] | 99% | 51% |  |
| O=c1n(C/C=C\CN2CCc3c([nH]c4ccccc34)C2)c2ccccc2n1CCN1CCCCC1 [compound 316] | 72% | 94% |  |
| O=c1n(CCN2CCOCC2)c2ccccc2n1CCN1CCN(c2cccc(Cl)c2)CC1 [compound 224] | 98% | 51% |  |
| O=c1n(CC=CCN2CCc3c([nH]c4ccccc34)C2)c2ccccc2n1CCN1CCOCC1 [compound 265] | 55% | 78% |  |
| COCCn1c(=O)n(C/C=C\CN2CCN(c3ccc(Cl)c(Cl)c3)CC2)c2ccccc21 [compound 286] | 65% | 87% |  |
| CS(=O)(=O)NCCn1c(=O)n(C/C=C\CN2CCc3c([nH]c4ccccc34)C2)c2ccccc21 [compound 501] | 70% | 63% |  |
| CS(=O)(=O)NCCn1c(=O)n(C/C=C\CN2CCN(c3ccc(Cl)c(Cl)c3)CC2)c2ccccc21 [compound 505] | 78% | 58% |  |
| COCCn1c(=O)n(CC=CCN2CCN(c3cccc(Cl)c3)CC2)c2ccccc21 [compound 280] | 93% | 38% |  |
| O=c1n(CCN2CCCCC2)c2ccccc2n1CCN1CCN(c2cccc(C(F)(F)F)c2)CC1 [compound 149] | 88% | 35% |  |

Now from value to molecule:

| inhibition at 0.1 µM (5-HT1A human receptors) | inhibition at 0.1 µM (D4 human receptors) | inhibition at 10 µM (CHO/5-HT1A cells) | Compound |
| --- | --- | --- | --- |
| 61% | 90% |  | O=c1n(C/C=C\CN2CCc3c([nH]c4ccccc34)C2)c2ccccc2n1CCO [compound 367] |
| 75% | 51% |  | O=c1n(CCO)c2ccccc2n1CCCCN1CCN(c2ccccn2)CC1 [compound 59] |
| 93% | 39% |  | CCNC(=O)OCCn1c(=O)n(C/C=C/CN2CCN(c3ccccc3)CC2)c2ccccc21 [compound 412] |
| 92% | 62% |  | COc1ccccc1N1CCN(CCCCn2c(=O)n(CCO)c3ccccc32)CC1 [compound 74] |
| 59% | 95% |  | O=c1n(C/C=C\CN2CCN(c3ccc(Cl)c(Cl)c3)CC2)c2ccccc2n1CCO [compound 371] |
| 92% | 44% |  | CCNC(=O)OCCn1c(=O)n(CCN2CCN(c3ccccc3OC)CC2)c2ccccc21 [compound 216] |
| 86% | 46% |  | O=c1n(C/C=C\CN2CCN(c3ccccc3)CC2)c2ccccc2n1CCO [compound 361] |
| 57% | 52% |  | O=c1n(CCN2CC=C(c3ccccc3)CC2)c2ccccc2n1CCN1CCCCC1 [compound 150] |
| 67% | 34% |  | O=c1n(CCN2CC=C(c3ccccc3)CC2)c2ccccc2n1CCN1CCOCC1 [compound 229] |
| 77% | 36% |  | O=c1n(C/C=C\CN2CCN(c3ccccn3)CC2)c2ccccc2n1CCO [compound 364] |
| 65% | 99% |  | O=c1n(CCO)c2ccccc2n1CCCCN1CCN(c2ccc(Cl)c(Cl)c2)CC1 [compound 66] |
| 67% | 54% |  | CCNC(=O)OCCn1c(=O)n(CCCCN2CCN(c3ccccc3)CC2)c2ccccc21 [compound 75] |
| 73% | 96% |  | O=c1n(CCO)c2ccccc2n1CCCCN1CCc2c([nH]c3ccccc23)C1 [compound 62] |
| 52% | 74% |  | O=c1n(CCO)c2ccccc2n1CCCCN1CC=C(c2ccccc2)CC1 [compound 65] |
| 77% | 35% |  | O=c1n(C/C=C/CN2CCN(c3ccccc3)CC2)c2ccccc2n1CCO [compound 378] |
| 86% | 32% |  | CCNC(=O)OCCn1c(=O)n(C/C=C\CN2CCN(c3ccccc3)CC2)c2ccccc21 [compound 395] |
| 58% | 33% |  | COc1ccccc1N1CCN(CCn2c(=O)n(CCNS(C)(=O)=O)c3ccccc32)CC1 [compound 255] |
| 59% | 51% |  | Cc1cccc(N2CCN(CCn3c(=O)n(CCNS(C)(=O)=O)c4ccccc43)CC2)c1 [compound 256] |
| 85% | 50% |  | COc1ccccc1N1CCN(CCn2c(=O)n(CCN3CCCCC3)c3ccccc32)CC1 [compound 159] |
| 94% | 70% |  | O=c1n(C/C=C\CN2CC=C(c3ccccc3)CC2)c2ccccc2n1CCN1CCCCC1 [compound 319] |
| 89% | 32% |  | COCCn1c(=O)n(C/C=C/CN2CCN(c3ccccc3)CC2)c2ccccc21 [compound 293] |
